Measurements taken from PubChem BioAssay AID1963853 (Molecular Pharmacology Branch, DTP, NCI, 2024).
pIC50: −log10 of the molar value.

Tested on: 266295-075-R-J1-PDC spheroid viability
Test: Anticancer human tumor 266295-075-R-J1-PDC patient-derived head and neck squamous carcinoma cell line growth inhibition [POLQ]
Conditions: spheroids with HUVEC and MSC; for pIC50: curve of first compound; for viability, T/C: stronger effect = lower value; active means viability on the fitted dose curve at most 10% of control; inactive means the rest
Summary of the method: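 PDC + HUVEC + MSC complex spheroids; POLQ inhibitors ± partner drugs; top conc. at/near clinical Cmax, else 10 microM (SN-38 1 microM), half-log dilutions; 37 degrees C, 5% CO2.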
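Further: spheroids exposed to compounds for seven days before readout.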

CC(=O)O[C@H]1C(=O)[C@@]2(C)[C@H]([C@H](OC(=O)c3ccccc3)[C@]3(O)C[C@H](OC(=O)[C@H](O)[C@@H](NC(=O)c4ccccc4)c4ccccc4)C(C)=C1C3(C)C)[C@]1(OC(C)=O)CO[C@@H]1C[C@@H]2O + Nc1ccc(C#CCN(C(=O)Cc2ncc(C(F)(F)F)cc2C(F)(F)F)c2ccc(F)cc2)nn1
inactive: viability, T/C (second compound 0.0316 µM, first compound 0.00949 µM) 98.3% | viability, T/C (second compound 0.0316 µM, first compound 0.03 µM) 78.9% | viability, T/C (second compound 0.0316 µM, first compound 0.0949 µM) 73.9% | viability, T/C (second compound 0.0316 µM, first compound 0.3 µM) 76% | viability, T/C (second compound 0.0316 µM, first compound 0.949 µM) 78.8% | viability, T/C (second compound 0.0316 µM, first compound 3 µM) 78.3% | viability, T/C (second compound 0.1 µM, first compound 0.00949 µM) 75.6% | viability, T/C (second compound 0.1 µM, first compound 0.03 µM) 84% | viability, T/C (second compound 0.1 µM, first compound 0.0949 µM) 69.3% | viability, T/C (second compound 0.1 µM, first compound 0.3 µM) 69.3% | viability, T/C (second compound 0.1 µM, first compound 0.949 µM) 70.7% | viability, T/C (second compound 0.1 µM, first compound 3 µM) 71.3% | viability, T/C (second compound 0.316 µM, first compound 0.00949 µM) 94.1% | viability, T/C (second compound 0.316 µM, first compound 0.03 µM) 82.9% | viability, T/C (second compound 0.316 µM, first compound 0.0949 µM) 63.7% | viability, T/C (second compound 0.316 µM, first compound 0.3 µM) 55.3% | viability, T/C (second compound 0.316 µM, first compound 0.949 µM) 77.5% | viability, T/C (second compound 0.316 µM, first compound 3 µM) 61.4% | viability, T/C (second compound 1 µM, first compound 0.00949 µM) 81.3% | viability, T/C (second compound 1 µM, first compound 0.03 µM) 59.1% | viability, T/C (second compound 1 µM, first compound 0.0949 µM) 69% | viability, T/C (second compound 1 µM, first compound 0.3 µM) 70.7% | viability, T/C (second compound 1 µM, first compound 0.949 µM) 72.7% | viability, T/C (second compound 1 µM, first compound 3 µM) 66% | viability, T/C (second compound 3.16 µM, first compound 0.00949 µM) 71% | viability, T/C (second compound 3.16 µM, first compound 0.03 µM) 80.5% | viability, T/C (second compound 3.16 µM, first compound 0.0949 µM) 77.4% | viability, T/C (second compound 3.16 µM, first compound 0.3 µM) 62.8% | viability, T/C (second compound 3.16 µM, first compound 0.949 µM) 65% | viability, T/C (second compound 3.16 µM, first compound 3 µM) 67.4% | viability, T/C (second compound 10 µM, first compound 0.00949 µM) 72.4% | viability, T/C (second compound 10 µM, first compound 0.03 µM) 74.6% | viability, T/C (second compound 10 µM, first compound 0.0949 µM) 63% | viability, T/C (second compound 10 µM, first compound 0.3 µM) 71.1% | viability, T/C (second compound 10 µM, first compound 0.949 µM) 76.7% | viability, T/C (second compound 10 µM, first compound 3 µM) 77.2%
< 5.52: pIC50 (second compound 0.0316 µM) | pIC50 (second compound 0.1 µM) | pIC50 (second compound 0.316 µM) | pIC50 (second compound 1 µM) | pIC50 (second compound 3.16 µM) | pIC50 (second compound 10 µM)

COc1cc(C2c3cc4c(cc3C(OC3OC5COC(C)OC5C(O)C3O)C3COC(=O)C23)OCO4)cc(OC)c1O (centres undefined) + Cc1cccc(N(C)C(=O)C2C(O)CCN2c2nc(C)cc(C(F)(F)F)c2C#N)c1
inactive: viability, T/C (second compound 0.0316 µM, first compound 0.0316 µM) 83.3% | viability, T/C (second compound 0.0316 µM, first compound 0.1 µM) 75.2% | viability, T/C (second compound 0.0316 µM, first compound 0.316 µM) 82.2% | viability, T/C (second compound 0.0316 µM, first compound 1 µM) 75.8% | viability, T/C (second compound 0.0316 µM, first compound 3.16 µM) 75.3% | viability, T/C (second compound 0.0316 µM, first compound 10 µM) 64.9% | viability, T/C (second compound 0.1 µM, first compound 0.0316 µM) 78.8% | viability, T/C (second compound 0.1 µM, first compound 0.1 µM) 82.2% | viability, T/C (second compound 0.1 µM, first compound 0.316 µM) 72.5% | viability, T/C (second compound 0.1 µM, first compound 1 µM) 69.4% | viability, T/C (second compound 0.1 µM, first compound 3.16 µM) 70.7% | viability, T/C (second compound 0.1 µM, first compound 10 µM) 70.2% | viability, T/C (second compound 0.316 µM, first compound 0.0316 µM) 96.5% | viability, T/C (second compound 0.316 µM, first compound 0.1 µM) 73.1% | viability, T/C (second compound 0.316 µM, first compound 0.316 µM) 73.9% | viability, T/C (second compound 0.316 µM, first compound 1 µM) 76.3% | viability, T/C (second compound 0.316 µM, first compound 3.16 µM) 73.1% | viability, T/C (second compound 0.316 µM, first compound 10 µM) 57.9% | viability, T/C (second compound 1 µM, first compound 0.0316 µM) 86.1% | viability, T/C (second compound 1 µM, first compound 0.1 µM) 95.4% | viability, T/C (second compound 1 µM, first compound 0.316 µM) 82% | viability, T/C (second compound 1 µM, first compound 1 µM) 86.2% | viability, T/C (second compound 1 µM, first compound 3.16 µM) 73.4% | viability, T/C (second compound 1 µM, first compound 10 µM) 68.1% | viability, T/C (second compound 3.16 µM, first compound 0.0316 µM) 85.8% | viability, T/C (second compound 3.16 µM, first compound 0.1 µM) 76.2% | viability, T/C (second compound 3.16 µM, first compound 0.316 µM) 77.5% | viability, T/C (second compound 3.16 µM, first compound 1 µM) 68.5% | viability, T/C (second compound 3.16 µM, first compound 3.16 µM) 68.1% | viability, T/C (second compound 3.16 µM, first compound 10 µM) 62.8% | viability, T/C (second compound 10 µM, first compound 0.0316 µM) 101% | viability, T/C (second compound 10 µM, first compound 0.1 µM) 72.5% | viability, T/C (second compound 10 µM, first compound 0.316 µM) 69.2% | viability, T/C (second compound 10 µM, first compound 1 µM) 72.2% | viability, T/C (second compound 10 µM, first compound 3.16 µM) 72.5% | viability, T/C (second compound 10 µM, first compound 10 µM) 60%
< 5.00: pIC50 (second compound 0.0316 µM) | pIC50 (second compound 0.1 µM) | pIC50 (second compound 0.316 µM) | pIC50 (second compound 1 µM) | pIC50 (second compound 3.16 µM) | pIC50 (second compound 10 µM)
